In patent US20230293517A1, “ANTAGONIST COMPOUNDS” (AdoRx Therapeutics Limited, priority 2020, published 2023):

Assays:
[1] = biological target: human Adenosine A1 receptor (Homo sapiens (Human), UniProt P30542); test: Adenosine receptor TR-FRET binding assay (A1); conditions: inhibition of binding of 100 nM CA200645, CHO cell membranes
Procedure, shortened: (§1)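 Ki values come from Cheng–Prusoff conversion of IC50s for displacement of fluorescent antagonist CA200645 from terbium-labelled human adenosine receptors in CHO membranes. Tracer was 30 nM at A2b and 100 nM at the other three subtypes; incubation lasted 2 h at room temperature.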

[2] = biological target: human Adenosine A2a receptor (Homo sapiens (Human), UniProt P29274); test: Adenosine receptor TR-FRET binding assay (A2a); conditions: inhibition of binding of 100 nM CA200645, CHO cell membranes
Sequence of human Adenosine A2a receptor (P29274 whole entry): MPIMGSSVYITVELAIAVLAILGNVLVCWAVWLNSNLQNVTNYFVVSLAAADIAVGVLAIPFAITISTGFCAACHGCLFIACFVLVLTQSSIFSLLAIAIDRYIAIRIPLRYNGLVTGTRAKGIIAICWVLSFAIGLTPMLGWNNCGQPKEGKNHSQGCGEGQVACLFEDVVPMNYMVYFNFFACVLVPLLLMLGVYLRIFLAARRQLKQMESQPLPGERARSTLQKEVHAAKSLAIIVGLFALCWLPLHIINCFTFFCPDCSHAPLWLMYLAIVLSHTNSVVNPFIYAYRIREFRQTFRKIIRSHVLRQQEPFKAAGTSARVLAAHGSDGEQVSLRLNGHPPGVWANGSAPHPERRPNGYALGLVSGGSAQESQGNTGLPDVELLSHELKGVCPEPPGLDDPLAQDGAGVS
Procedure, shortened: as §1

[3] = biological target: human Adenosine A2b receptor (Homo sapiens (Human), UniProt P29275); test: Adenosine receptor TR-FRET binding assay (A2b); conditions: TR-FRET, inhibition of binding of 30 nM CA200645, CHO cell membranes
Sequence of human Adenosine A2b receptor (P29275 whole entry): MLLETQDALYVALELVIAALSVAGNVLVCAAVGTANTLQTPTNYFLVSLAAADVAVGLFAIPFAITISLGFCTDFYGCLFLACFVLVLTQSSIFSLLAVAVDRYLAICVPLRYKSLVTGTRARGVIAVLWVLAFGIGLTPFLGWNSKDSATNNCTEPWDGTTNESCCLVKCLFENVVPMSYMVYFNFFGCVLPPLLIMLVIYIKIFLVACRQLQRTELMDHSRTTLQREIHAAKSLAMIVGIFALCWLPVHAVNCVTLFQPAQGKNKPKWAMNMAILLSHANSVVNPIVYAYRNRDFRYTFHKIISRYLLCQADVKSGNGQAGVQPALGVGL
Procedure, shortened: as §1

[4] = biological target: human Adenosine A3 receptor (Homo sapiens (Human), UniProt P0DMS8); test: Adenosine receptor TR-FRET binding assay (A3); conditions: inhibition of binding of 100 nM CA200645, CHO cell membranes
Sequence of human Adenosine A3 receptor (P0DMS8 whole entry): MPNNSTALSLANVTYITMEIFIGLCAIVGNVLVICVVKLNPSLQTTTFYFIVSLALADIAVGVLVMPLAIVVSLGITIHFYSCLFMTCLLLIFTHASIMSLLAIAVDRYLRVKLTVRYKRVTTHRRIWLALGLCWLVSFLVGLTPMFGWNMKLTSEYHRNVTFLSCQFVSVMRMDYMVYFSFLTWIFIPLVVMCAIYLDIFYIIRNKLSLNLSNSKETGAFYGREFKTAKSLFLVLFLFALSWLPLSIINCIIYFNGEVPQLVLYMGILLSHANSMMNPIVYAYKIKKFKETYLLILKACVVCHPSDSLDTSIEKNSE
Procedure, shortened: as §1

[5] = test system: human PBMCs; test: CD3/CD28 stimulated IL-2 release NECA reversal assay in human PBMCs; assay type: cell-based; conditions: PBMC, 1 uM NECA, 24 hours, IL-2 in culture supernatant
Procedure, shortened: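 PBMCs from citrated healthy-donor blood plated at 50,000 cells/well on 1 ug/ml CD3 antibody with 1 ug/ml CD28 antibody, 1 uM NECA and 0.003-10 μM antagonist (final), 24 h at 37° C. Supernatant IL-2 measured by MSD immunoassay; % inhibition set against no-NECA control wells as 100%.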

[6] = test system: CD8+T cells in human whole blood; test: Measurement of pCREB in CD8+T cells in human whole blood; assay type: cell-based; conditions: 3 μM NECA, rolipram
Procedure, shortened: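 Heparinised human whole blood pre-incubated 20 min at 37 °C with serially diluted A2a antagonists plus rolipram, then stimulated 60 min with 3 μM NECA (final). After fixation and red-cell lysis, white cells were permeabilized and stained for phospho-CREB and CD8; pCREB in CD8+ T cells measured by flow cytometry.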

[7] = test system: immature monocyte-derived dendritic cells (MoDC); test: MoDC pCREB assay; assay type: cell-based, human; conditions: Homo sapiens, Dendritic cell; pCREB in immature MoDC, 1 μM NECA, rolipram
Procedure, shortened: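 Human CD14+ monocytes differentiated 5 days into immature MoDC, pre-incubated 15 min at 37 °C with antagonist plus rolipram, then stimulated with 1 μM NECA for 45 min at 37 °C. Phospho-CREB measured by flow cytometry in gated CD209+/CD86− low cells; IC50 from the inflection point of a sigmoidal curve.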

Sequence of human Adenosine A1 receptor (P30542 whole entry): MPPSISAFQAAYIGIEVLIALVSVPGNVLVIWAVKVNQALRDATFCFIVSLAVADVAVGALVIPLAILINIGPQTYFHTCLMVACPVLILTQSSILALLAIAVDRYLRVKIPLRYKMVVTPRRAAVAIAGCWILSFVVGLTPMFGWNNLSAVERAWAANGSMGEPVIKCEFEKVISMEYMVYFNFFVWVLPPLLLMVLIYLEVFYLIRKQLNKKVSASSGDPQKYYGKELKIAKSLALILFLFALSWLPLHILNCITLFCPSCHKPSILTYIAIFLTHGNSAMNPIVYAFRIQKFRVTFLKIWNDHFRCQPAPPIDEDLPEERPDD

Row | SMILES | Ki [1] | Ki [2] | Ki [3] | Ki [4] | IC50 [5] | IC50 [6] | IC50 [7]
1 | Cc1cc(-c2sc(NC(=O)N3CC[C@@H](C(C)(C)O)C3)nc2-c2cccc(C#N)c2)cc(C)n1 [Example 6.36, (3R)-N-[4-(3-Cyanophenyl)-5-(2,6-dimethyl-4-pyridyl)thiazol-2-yl]-3-(1-hydroxy-1-methyl-ethyl)pyrrolidine-1-carboxamide] | 133 nM | 0.87 nM | 4.2 nM | 377 nM | 4.2 nM | 90 nM | 16 nM
2 | Cc1cc(-c2sc(NC(=O)N3CC4(C3)CS(=O)(=O)C4)nc2-c2cccc(C#N)c2)cc(C)n1 [Example 6.46, N-[4-(3-Cyanophenyl)-5-(2,6-dimethyl-4-pyridyl)thiazol-2-yl]-2,2-dioxo-2λ^∧{6}-thia-6-azaspiro[3.3]heptane-6-carboxamide] | 113 nM | 2.06 nM | 1.9 nM | 235 nM | 15.1 nM | 360 nM | 38 nM
3 | Cc1cc(-c2sc(NC(=O)N3CC4(CCOC4)C3)nc2-c2cccc(C#N)c2)cc(C)n1 [Example 6.53, N-[4-(3-Cyanophenyl)-5-(2,6-dimethyl-4-pyridyl)thiazol-2-yl]-6-oxa-2-azaspiro[3.4]octane-2-carboxamide] | 110 nM | 0.27 nM | 1.6 nM | 662 nM | 2.5 nM | 130 nM | 40 nM
4 | Cc1cc(-c2sc(NC(=O)N3CCOC[C@H]3C)nc2-c2cccc(C#N)c2)cc(C)n1 [Example 6.74, (3R)-N-[4-(3-Cyanophenyl)-5-(2,6-dimethyl-4-pyridyl)thiazol-2-yl]-3-methyl-morpholine-4-carboxamide] | 23 nM | 0.63 nM | 1.9 nM | 219 nM | 5.6 nM | 240 nM | 1 nM
5 | Cc1cc(-c2sc(NC(=O)N3CCC4(COC4)C3)nc2-c2cccc(C#N)c2)cc(C)n1 [Example 6.81, N-[4-(3-Cyanophenyl)-5-(2,6-dimethyl-4-pyridyl)thiazol-2-yl]-2-oxa-7-azaspiro[3.4]octane-7-carboxamide] | 49 nM | 0.47 nM | 2.3 nM | 292 nM | 7.6 nM | 230 nM | 19 nM
6 | Cc1cc(-c2sc(NC(=O)N3CC4(CCN(C)C4=O)C3)nc2-c2cccc(C#N)c2)cc(C)n1 [Example 6.92, N-[4-(3-Cyanophenyl)-5-(2,6-dimethyl-4-pyridyl)thiazol-2-yl]-6-methyl-5-oxo-2,6-diazaspiro[3.4]octane-2-carboxamide] | 66 nM | 0.39 nM | 2.6 nM | 98 nM | 1.2 nM | 30 nM | 11 nM
7 | Cc1cc(-c2sc(NC(=O)N3CC4(CCO4)C3)nc2-c2cccc(C#N)c2)cc(C)n1 [Example 6.93, N-[4-(3-Cyanophenyl)-5-(2,6-dimethyl-4-pyridyl)thiazol-2-yl]-1-oxa-6-azaspiro[3.3]heptane-6-carboxamide] | 44 nM | 0.31 nM | 1.5 nM | 161 nM | 1.3 nM | 50 nM | 9 nM
8 | Cc1cc(-c2sc(NC(=O)N3CC4(COC4)C3)nc2-c2cccc(C#N)c2)cc(C(F)(F)F)n1 [Example 6.99, N-[4-(3-Cyanophenyl)-5-[2-methyl-6-(trifluoromethyl)-4-pyridyl]thiazol-2-yl]-2-oxa-6-azaspiro[3.3]heptane-6-carboxamide] | 14 nM | 0.13 nM | 0.7 nM | 77 nM | 0.7 nM | 40 nM | 8 nM
9 | Cc1cc(-c2sc(NC(=O)N3CCC(C#N)(C#N)CC3)nc2-c2cccc(C#N)c2)cc(CO)n1 [Example 9.8] | 24 nM | 0.37 nM | 2.4 nM | 615 nM | 0.7 nM | 10 nM | 8 nM
10 | Cc1cc(-c2sc(NC(=O)N3CC4(COC4)C3)nc2-c2cccc(C#N)c2)cc(C(C)(C)O)n1 [Example 12.2, N-[4-(3-Cyanophenyl)-5-[2-(1-hydroxy-1-methyl-ethyl)-6-methyl-4-pyridyl]thiazol-2-yl]-2-oxa-6-azaspiro[3.3]heptane-6-carboxamide] | 6 nM | 0.28 nM | 8.4 nM | 1520 nM | 0.4 nM | 10 nM | 55 nM
11 | Cc1cc(-c2sc(NC(=O)N3CC4(COC4)C3)nc2-c2cccc(C#N)c2)cc(CF)n1 [Example 16.6] | 42 nM | 0.16 nM | 1.6 nM | 985 nM | 2.6 nM | 100 nM | 13 nM
12 | Cc1cc(-c2sc(NC(=O)N3CC4(COC4)C3)nc2-c2cccc(C#N)c2)cc(C2CC2)n1 [Example 16.7] | 13 nM | 0.13 nM | 1.6 nM | 478 nM | 0.9 nM | 60 nM | 14 nM
13 | Cc1cc(-c2sc(NC(=O)N3CCC(C)(C#N)CC3)nc2-c2cccc(C#N)c2)cc(CO)n1 [Example 24, 4-Cyano-N-[4-(3-cyanophenyl)-5-[2-(hydroxymethyl)-6-methyl-4-pyridyl]thiazol-2-yl]-4-methyl-piperidine-1-carboxamide] | 71 nM | 0.24 nM | 2.7 nM | 683 nM | 1.6 nM | 20 nM | 21 nM
14 | Cc1cc(-c2sc(NC(=O)N3CC[C@](C)(C#N)C3)nc2-c2cccc(C#N)c2)cc(C)n1 [Example 27b, (3S)-3-cyano-N-[4-(3-cyanophenyl)-5-(2,6-dimethyl-4-pyridyl)thiazol-2-yl]-3-methyl-pyrrolidine-1-carboxamide] | 33 nM | 0.14 nM | 1 nM | 271 nM | 1 nM | 40 nM | 4 nM
15 | [2H]C([2H])([2H])c1cc(-c2sc(NC(=O)N3CCC(C)(C#N)CC3)nc2-c2cccc(C#N)c2)cc(C([2H])([2H])[2H])n1 [Example 28, N-[5-[2,6-Bis(trideuteriomethyl)-4-pyridyl]-4-(3-cyanophenyl)thiazol-2-yl]-4-cyano-4-methyl-piperidine-1-carboxamide] | 30 nM | 0.09 nM | 1 nM | 381 nM | 0.4 nM | 60 nM | 9 nM
